The source made the active and inactive calls. The calls are words filed in the database; no cut-off is given here.
Key:
[1] = organism: Rattus norvegicus; experiment: Compound was evaluated for the anticonvulsant activity in amygdala kindled rats; Inactive; assay type: functional, organism-based
[2] = biological target: 4-aminobutyrate aminotransferase, mitochondrial (Homo sapiens) (UniProt P80404); experiment: Compound was tested for the inhibition of Gamma-amino-N-butyrate transaminase; Active
[3] = organism: Rattus norvegicus; experiment: Compound was evaluated for the anticonvulsant activity in amygdala kindled rats; Active; assay type: functional, organism-based
[4] = biological target: T1, Succinate-semialdehyde dehydrogenase, mitochondrial (Homo sapiens) (UniProt P51649); experiment: Compound was tested for the inhibition of succinic semialdehyde dehydrogenase; Active
T1 sequence (whole entry): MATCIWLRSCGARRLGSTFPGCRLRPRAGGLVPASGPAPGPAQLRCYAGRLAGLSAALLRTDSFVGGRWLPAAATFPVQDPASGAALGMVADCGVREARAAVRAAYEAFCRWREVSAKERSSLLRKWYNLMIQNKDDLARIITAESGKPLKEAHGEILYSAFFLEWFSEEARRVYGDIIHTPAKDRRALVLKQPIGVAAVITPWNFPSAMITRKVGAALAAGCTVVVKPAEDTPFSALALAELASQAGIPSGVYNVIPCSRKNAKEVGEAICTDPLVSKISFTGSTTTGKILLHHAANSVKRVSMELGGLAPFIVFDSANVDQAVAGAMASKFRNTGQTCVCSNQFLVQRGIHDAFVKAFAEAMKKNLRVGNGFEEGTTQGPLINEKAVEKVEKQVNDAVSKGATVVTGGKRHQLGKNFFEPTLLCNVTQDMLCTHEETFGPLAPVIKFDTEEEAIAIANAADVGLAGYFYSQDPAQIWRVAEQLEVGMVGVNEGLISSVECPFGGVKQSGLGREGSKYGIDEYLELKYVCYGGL

Sequence of 4-aminobutyrate aminotransferase, mitochondrial (Homo sapiens) (P80404 whole entry): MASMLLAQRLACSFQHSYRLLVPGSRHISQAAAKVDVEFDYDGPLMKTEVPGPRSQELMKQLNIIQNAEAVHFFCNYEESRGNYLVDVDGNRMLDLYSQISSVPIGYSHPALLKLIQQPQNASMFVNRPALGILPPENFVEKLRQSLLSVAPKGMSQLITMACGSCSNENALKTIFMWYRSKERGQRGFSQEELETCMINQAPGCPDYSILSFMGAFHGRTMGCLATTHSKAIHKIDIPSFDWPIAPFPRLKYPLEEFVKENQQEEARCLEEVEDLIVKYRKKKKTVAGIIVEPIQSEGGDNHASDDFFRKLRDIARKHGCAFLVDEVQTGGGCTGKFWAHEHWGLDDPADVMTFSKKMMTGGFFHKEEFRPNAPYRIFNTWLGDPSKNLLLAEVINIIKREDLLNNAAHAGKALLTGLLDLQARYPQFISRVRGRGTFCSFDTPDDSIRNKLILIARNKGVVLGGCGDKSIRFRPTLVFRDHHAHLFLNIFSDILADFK

SMILES | Activity [1] | Activity [2] | Activity [3] | Activity [4]
CCCC(CCC)P(=O)(O)O | inactive |  |  | 
CCCC(CCC)[PH](=O)O | inactive |  |  | 
CCCC(CCC)C(=O)O |  | Active | Active | Active
CCCC(CCC)P(C)(=O)O | inactive |  |  | 
